PMC8565515, “Dasabuvir Inhibits Human Norovirus Infection in Human Intestinal Enteroids” (mSphere, 2021)
Counter-ions that a name gives are not always drawn. Like-named read-outs stand apart in the source and are kept apart here.

Experiments:
[1] = test system: GII.4 HuNoV; assay: GII.4 HuNoV infection of HIE monolayers, viral genome equivalents by RT-qPCR; type: cell-based, human norovirus; settings: for activity at 10 µM: Norovirus, 24 h, read-out: (%) HuNoV GEs
[2] = test system: J2 HIE monolayers; assay: Cytotoxicity by LDH assay in J2 HIE monolayers; settings: compound 10 μM, n = 1, LDH assay, J2 HIE monolayers infected with GII.4 HuNoV, 24 hpi, normalized to DMSO control
[3] = test system: J2 HIE monolayers
[4] = compound 10 μM, n = 1, J2 HIE monolayers, GII.4 HuNoV, 24 hpi, normalized to DMSO control

| Compound | activity at 10 µM [1, 4] [%] | (%) Cytotoxicity ([3]; human, 24 h, 10 μM) [%] | other results |
| --- | --- | --- | --- |
| O=C(Nc1ncc([N+](=O)[O-])s1)c1ccccc1O [Tizoxanide] | 40 |  | (%) Cytotoxicity [2]: 2.28% |
| CC(C)OC(=O)C1=CN(C(=O)c2ccc(F)c(F)c2)CC(C)(C)c2c1[nH]c1ccccc21 [Turofexorate Isopropyl] | 31.9 |  | (%) Cytotoxicity [2]: 0.86% |
| CN(C)[C@@H]1C(O)=C(C(N)=O)C(=O)[C@@]2(O)C(O)=C3C(=O)c4c(O)cccc4[C@@](C)(O)[C@H]3C[C@@H]12 [Tetracycline] | 108 |  | (%) Cytotoxicity [2]: 0.09% |
| Vitamin E |  |  | (%) HuNoV GEs [1, 4]: 125.47%; (%) Cytotoxicity [2]: -0.33% |
| COc1ccnc(C[S+]([O-])c2nc3ccc(-n4cccc4)cc3[n-]2)c1C.[Na+] (stereo not shown) [Ilaprazole sodium] |  |  | (%) HuNoV GEs [1, 4]: 39.34%; (%) Cytotoxicity [2]: 1.57% |
| C[C@H]1CO[C@@H]2Cn3cc(C(=O)NCc4ccc(F)cc4F)c(=O)c(O)c3C(=O)N12 [Cabotegravir] | 54.1 |  | (%) Cytotoxicity [2]: 5.83% |
| COC[C@H]1C[C@@H](c2ncc(-c3ccc4c(c3)COc3cc5c(ccc6nc([C@@H]7CC[C@H](C)N7C(=O)[C@@H](NC(=O)OC)C(C)C)[nH]c65)cc3-4)[nH]2)N(C(=O)[C@H](NC(=O)OC)c2ccccc2)C1 [Velpatasvir] | 59.8 |  | (%) Cytotoxicity [2]: 1.45% |
| CC1(C)CC[C@]2(C(=O)O)CC[C@]3(C)C(=CC[C@@H]4[C@@]5(C)CCC(=O)C(C)(C)[C@@H]5CC[C@]43C)[C@@H]2C1 [Oleanonic Acid] | 11.9 |  | (%) Cytotoxicity [2]: -3.05% |
| Cc1cc(/C=C/C#N)cc(C)c1Nc1ccnc(Nc2ccc(C#N)cc2)n1 [Rilpivirine] | 117 |  | (%) Cytotoxicity [2]: 0.20% |
| COc1cc2ncnc(Nc3cccc(Cl)c3)c2cc1OC [AG-1478] |  |  | (%) Cytotoxicity [2]: 84.88% |
| COC(=O)N[C@H](C(=O)N1CCC[C@H]1c1nc(-c2ccc(-c3ccc(-c4c[nH]c([C@@H]5CCCN5C(=O)[C@@H](NC(=O)OC)C(C)C)n4)cc3)cc2)c[nH]1)C(C)C [Daclatasvir dihydrochloride] | 178 | 5.28 |  |
| O=C1Nc2ccc(Cl)cc2[C@@](C#CC2CC2)(C(F)(F)F)O1 [Efavirenz] | 135 | 1.69 |  |
| O=C(O[C@@H]1Cc2c(O)cc(O)cc2O[C@@H]1c1cc(O)c(O)c(O)c1)c1cc(O)c(O)c(O)c1 [(-)-Epigallocatechin Gallate] | 198 | 2.41 |  |
| CCS(=O)(=O)CCn1c([N+](=O)[O-])cnc1C [Tinidazole] | 41 | -0.09 |  |
| Nc1nc2c(ncn2CCC(CO)CO)c(=O)[nH]1 [Penciclovir] | 22.1 | 2.02 |  |
| Clc1ccc(Cn2c(CN3CCCC3)nc3ccccc32)cc1 [Clemizole] | 85.7 | 3.11 |  |
| Nc1ncnc2c1ncn2[C@@H]1O[C@H](CO)[C@@H](O)[C@@H]1O [Vidarabine] | 51.4 | -2.58 |  |
| CC(C)CN(C[C@@H](O)[C@H](Cc1ccccc1)NC(=O)O[C@H]1CCOC1)S(=O)(=O)c1ccc(N)cc1 [Amprenavir] | 15.9 | -0.21 |  |
| O=c1[nH]c(=O)n([C@H]2C[C@H](O)[C@@H](CO)O2)cc1I [Dendrid] | 67.3 | -0.36 |  |
| CN(C(=O)CN(CCO)CC(=O)N(C)C(C)(C)Cc1ccccc1)C(C)(C)Cc1ccccc1 [Oxethazaine] | 29.4 | 1.91 |  |
| CO/N=C(\C(=O)N[C@@H]1C(=O)N2C(C(=O)O)=C(C[N+]3(C)CCCC3)CS[C@H]12)c1csc(N)n1 [Cefepime Dihydrochloride Monohydrate] | 116 | 3.73 |  |
| CN(C)CC[C@@H](c1ccc(Cl)cc1)c1ccccn1 [Dexchlorpheniramine Maleate] | 63.6 | -3.40 |  |
| NCCCNCCCCNCCCN [Spermine] | 116 | 2.77 |  |
| O[C@H]1[C@H](O)[C@@H](O)[C@H](O)[C@@H](O)[C@H]1O [Inositol] | 44.9 | 2.88 |  |
| O=C1c2cccc(O)c2C(=O)c2c(O)cc(CO)cc21 [Aloe-emodin] | 253 | 0.59 |  |
| Clc1ccc(COC(Cn2ccnc2)c2ccc(Cl)cc2Cl)cc1 (stereo not shown) [Econazole] | 95.8 | 7.35 |  |
| COC(=O)C(C)(N)C(C)(C)C (stereo not shown) [6526-0824] |  |  | (%) HuNoV GEs [1, 4]: 131.97%; (%) Cytotoxicity [3]: 2.41% |
| COc1ncnc(NS(=O)(=O)c2ccc(N)cc2)c1OC [Sulfadoxine] | 50 | 2.36 |  |

| Compound | activity at 10 µM [1, 4] [%] | (%) Cytotoxicity ([3]; human, 24 h, 10 μM) [%] | other results |
| --- | --- | --- | --- |
| Cc1c(O)cccc1C(=O)N[C@@H](CSc1ccccc1)[C@H](O)CN1C[C@H]2CCCC[C@H]2C[C@H]1C(=O)NC(C)(C)C [Nelfinavir Mesylate] | 39.7 | 4.06 |  |
| COc1cnc(-n2cnc(C)n2)c2c1c(C(=O)C(=O)N1CCN(C(=O)c3ccccc3)CC1)cn2COP(=O)(O)O [Fostemsavir] | 87.3 | -2.34 |  |
| CC(C)(C)C(=O)OCOP(=O)(COCCn1cnc2c(N)ncnc21)OCOC(=O)C(C)(C)C [Adefovir dipivoxil] |  | 3.59 | activity at 10 µM [1]: 67.1% |
| OC[C@H]1O[C@@H]2O[C@H]3[C@H](O)[C@@H](O)[C@@H](O[C@H]4[C@H](O)[C@@H](O)[C@@H](O[C@H]5[C@H](O)[C@@H](O)[C@@H](O[C@H]6[C@H](O)[C@@H](O)[C@@H](O[C@H]7[C@H](O)[C@@H](O)[C@@H](O[C@H]8[C@H](O)[C@@H](O)[C@@H](O[C@H]1[C@H](O)[C@H]2O)O[C@@H]8CO)O[C@@H]7CO)O[C@@H]6CO)O[C@@H]5CO)O[C@@H]4CO)O[C@@H]3CO [Beta-Cyclodextrin] | 70.6 | -0.91 |  |
| O=C(O)c1ccccc1C(=O)Nc1ccc(S(=O)(=O)Nc2nccs2)cc1 [Phthalylsulfathiazole] | 44 | 2.05 |  |
| Nc1nc(O)c2ncn(COC(CO)CO)c2n1 [Ganciclovir] | 117 | 3.59 |  |
| CN(C)[C@@H]1C(O)=C(C(N)=O)C(=O)[C@@]2(O)C(O)=C3C(=O)c4c(O)cccc4[C@@](C)(O)[C@H]3[C@H](O)[C@@H]12 [Oxytetracycline] | 46.2 | 3.05 |  |
| CCc1nn(CC(=O)NCCCN(CC)CC)c(=O)c2cc3sc(C)cc3n12 [C795-0720] |  |  | (%) HuNoV GEs [1, 4]: 100.75%; (%) Cytotoxicity [3]: 0.72% |
| CC[C@@H](CO)NCCN[C@@H](CC)CO [Ethambutol dihydrochloride] | 100 | 0.23 |  |
| CC(=O)OCC(=O)[C@@]1(O)CC[C@H]2[C@@H]3CCC4=CC(=O)C=C[C@]4(C)[C@@]3(Cl)[C@@H](Cl)C[C@@]21C [Dichlorisone Acetate] | 59.1 | -1.58 |  |
| Cc1cccc(C)c1N(CC(=O)Nc1ccc(-c2ncon2)cc1)C(=O)C1CCS(=O)(=O)CC1 [Amenamevir] | 61.7 | 0.09 |  |
| C[C@@H](c1ncncc1F)[C@](O)(Cn1cncn1)c1ccc(F)cc1F [Voriconazole] | 14.1 | -1.63 |  |
| CC(C)[C@H](N)C(=O)OCCOCn1cnc2c(=O)[nH]c(N)nc21 [Valacyclovir hydrochloride] | 22.4 | 0.09 |  |
| CN(C)c1ccc(C(=C2C=CC(=[N+](C)C)C=C2)c2ccc(N(C)C)cc2)cc1 [Crystal Violet] | 14.5 | 55.49 |  |
| CC(=O)Oc1ccccc1C(=O)Nc1ncc([N+](=O)[O-])s1 [Nitazoxanide] | 44.5 | 4.63 |  |
| CCn1cc(C(=O)O)c(=O)c2cc(F)c(N3CCNCC3)nc21 [Enoxacin] | 12.5 | 0.62 |  |
| Clc1ccc(COC(Cn2ccnc2)c2ccc(Cl)cc2Cl)c(Cl)c1 (stereo not shown) [Miconazole] | 76.8 | 25.21 |  |
| O=C(O)P(=O)(O)O [Foscarnet sodium] | 88.5 | 1.07 |  |
| Clc1ccc(C(Cn2ccnc2)OCc2ccsc2Cl)c(Cl)c1 (stereo not shown) [Vagistat] | 28.3 | 3.16 |  |
| C=CC1=C(C(=O)O)N2C(=O)[C@@H](NC(=O)/C(=N\O)c3csc(N)n3)[C@H]2SC1 [Cefdinir] | 118 | 2.33 |  |
| CC(=O)N(CC(O)CO)c1c(I)c(C(=O)NCC(O)CO)c(I)c(C(=O)NCC(O)CO)c1I (stereo not shown) [Iohexol] | 55.3 | 1.11 |  |
| CC1(C)S[C@@H]2[C@H](NC(=O)[C@H](N)c3ccccc3)C(=O)N2[C@H]1C(=O)O [Ampicillin Trihydrate] | 100 | 1.14 |  |
| Nc1nc(=O)n([C@@H]2CS[C@H](CO)O2)cc1F [Emtricitabine] | 55.5 | 2.80 |  |
| Nc1nc2c(ncn2COCCO)c(=O)[nH]1 [Aciclovir] | 54.4 | 0.59 |  |
| Cc1cn([C@H]2C=C[C@@H](CO)O2)c(=O)[nH]c1=O [Stavudine] | 124 | 2.15 |  |
| Cc1cn([C@@H]2C[C@@H](O)[C@H](CO)O2)c(=O)[nH]c1=O [Telbivudine] | 70.2 | -0.33 |  |
| COC(=O)N[C@H](C(=O)N[C@@H](Cc1ccccc1)[C@@H](O)CN(Cc1ccc(-c2ccccn2)cc1)NC(=O)[C@@H](NC(=O)OC)C(C)(C)C)C(C)(C)C [Atazanavir] | 66.4 | 0.72 |  |
